Laboratory results reported in patent US10513521B2, “Compositions and methods for inhibiting BMP” (The Brigham and Women's Hospital, Inc., priority 2014, dated 2019).
Structures can show the parent of a compound that is named as a salt.

What was measured:
[1] = target: ALK6 (Homo sapiens, UniProt O00238); assay: TR-FRET enzymatic ALK kinase assay, ALK6
Description: (§1) Briefly, the ALKs enzymatic assay was initiated by dispense 2.5 μl enzyme in 1× kinase reaction buffer. The assay plate was then added with compounds followed by incubation at room temperature for 10 minutes. Then 2.5 μl/well substrate was added.

[2] = target: T1, ALK4 (Homo sapiens, UniProt P36896); assay: TR-FRET enzymatic ALK kinase assay, ALK4
T1 sequence (P36896 24-505): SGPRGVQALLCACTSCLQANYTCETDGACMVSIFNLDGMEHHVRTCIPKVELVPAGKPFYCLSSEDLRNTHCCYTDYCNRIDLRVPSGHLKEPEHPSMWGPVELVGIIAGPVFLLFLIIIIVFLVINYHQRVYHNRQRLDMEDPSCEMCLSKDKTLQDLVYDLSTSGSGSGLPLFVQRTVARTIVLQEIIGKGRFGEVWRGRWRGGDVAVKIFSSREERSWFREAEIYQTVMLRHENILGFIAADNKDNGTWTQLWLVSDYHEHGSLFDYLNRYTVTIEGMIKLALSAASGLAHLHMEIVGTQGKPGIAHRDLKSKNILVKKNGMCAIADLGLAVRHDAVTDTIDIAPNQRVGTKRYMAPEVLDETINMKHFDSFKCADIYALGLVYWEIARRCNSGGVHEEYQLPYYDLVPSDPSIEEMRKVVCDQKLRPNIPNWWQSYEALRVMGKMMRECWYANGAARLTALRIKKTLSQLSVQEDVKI
Description: as §1

[3] = target: ALK1 (Homo sapiens, UniProt P37023); assay: TR-FRET enzymatic ALK kinase assay, ALK1
Sequence of ALK1 (P37023 22-503): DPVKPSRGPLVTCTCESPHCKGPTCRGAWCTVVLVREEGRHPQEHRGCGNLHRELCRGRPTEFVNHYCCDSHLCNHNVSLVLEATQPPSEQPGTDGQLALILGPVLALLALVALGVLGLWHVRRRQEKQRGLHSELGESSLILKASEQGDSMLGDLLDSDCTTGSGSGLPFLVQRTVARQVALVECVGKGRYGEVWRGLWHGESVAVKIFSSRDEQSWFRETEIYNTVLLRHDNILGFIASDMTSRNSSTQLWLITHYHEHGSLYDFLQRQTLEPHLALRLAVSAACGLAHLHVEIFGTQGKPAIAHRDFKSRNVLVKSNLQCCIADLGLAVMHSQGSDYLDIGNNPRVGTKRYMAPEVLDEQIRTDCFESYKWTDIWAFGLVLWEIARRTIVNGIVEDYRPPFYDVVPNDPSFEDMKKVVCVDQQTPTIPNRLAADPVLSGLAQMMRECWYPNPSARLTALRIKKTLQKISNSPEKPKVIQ
Description: as §1

[4] = target: T2, ALK5 (Homo sapiens, UniProt P36897); assay: TR-FRET enzymatic ALK kinase assay, ALK5
T2 sequence (P36897 34-503): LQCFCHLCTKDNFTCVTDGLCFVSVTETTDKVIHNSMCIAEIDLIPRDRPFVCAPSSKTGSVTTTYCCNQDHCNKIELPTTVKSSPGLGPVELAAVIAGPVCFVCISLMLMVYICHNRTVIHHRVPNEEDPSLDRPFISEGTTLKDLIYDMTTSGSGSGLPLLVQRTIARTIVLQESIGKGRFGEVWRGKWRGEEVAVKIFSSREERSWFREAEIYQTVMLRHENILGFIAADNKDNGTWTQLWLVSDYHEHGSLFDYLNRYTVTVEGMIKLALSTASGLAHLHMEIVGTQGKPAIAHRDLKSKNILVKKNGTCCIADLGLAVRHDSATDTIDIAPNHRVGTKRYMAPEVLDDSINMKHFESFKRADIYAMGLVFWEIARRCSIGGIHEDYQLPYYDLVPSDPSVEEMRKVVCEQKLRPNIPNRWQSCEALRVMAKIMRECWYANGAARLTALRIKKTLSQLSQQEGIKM
Description: Six ALK kinase enzyme assays were developed for determination of compound activities on ALK1, ALK2, ALK3, ALK4, ALK5 and ALK6.
as §1

[5] = target: T3, ALK2 (Homo sapiens, UniProt Q04771); assay: TR-FRET enzymatic ALK kinase assay, ALK2
T3 sequence (Q04771 21-509): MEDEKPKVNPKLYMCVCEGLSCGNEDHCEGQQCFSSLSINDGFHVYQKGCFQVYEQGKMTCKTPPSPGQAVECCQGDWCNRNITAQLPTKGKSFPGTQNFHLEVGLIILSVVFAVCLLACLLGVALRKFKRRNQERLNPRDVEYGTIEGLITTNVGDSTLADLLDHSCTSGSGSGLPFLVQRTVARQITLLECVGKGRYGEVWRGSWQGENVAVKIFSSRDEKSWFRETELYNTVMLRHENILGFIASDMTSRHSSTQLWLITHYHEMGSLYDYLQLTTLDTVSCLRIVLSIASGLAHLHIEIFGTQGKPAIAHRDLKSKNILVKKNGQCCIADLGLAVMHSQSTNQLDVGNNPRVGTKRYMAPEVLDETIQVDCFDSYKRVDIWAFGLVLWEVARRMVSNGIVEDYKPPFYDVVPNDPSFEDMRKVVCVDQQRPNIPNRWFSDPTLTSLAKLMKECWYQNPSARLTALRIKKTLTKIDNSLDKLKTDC
Description: as §1

[6] = target: ALK3 (Homo sapiens, UniProt P36894); assay: TR-FRET enzymatic ALK kinase assay, ALK3
Sequence of ALK3 (P36894 24-532): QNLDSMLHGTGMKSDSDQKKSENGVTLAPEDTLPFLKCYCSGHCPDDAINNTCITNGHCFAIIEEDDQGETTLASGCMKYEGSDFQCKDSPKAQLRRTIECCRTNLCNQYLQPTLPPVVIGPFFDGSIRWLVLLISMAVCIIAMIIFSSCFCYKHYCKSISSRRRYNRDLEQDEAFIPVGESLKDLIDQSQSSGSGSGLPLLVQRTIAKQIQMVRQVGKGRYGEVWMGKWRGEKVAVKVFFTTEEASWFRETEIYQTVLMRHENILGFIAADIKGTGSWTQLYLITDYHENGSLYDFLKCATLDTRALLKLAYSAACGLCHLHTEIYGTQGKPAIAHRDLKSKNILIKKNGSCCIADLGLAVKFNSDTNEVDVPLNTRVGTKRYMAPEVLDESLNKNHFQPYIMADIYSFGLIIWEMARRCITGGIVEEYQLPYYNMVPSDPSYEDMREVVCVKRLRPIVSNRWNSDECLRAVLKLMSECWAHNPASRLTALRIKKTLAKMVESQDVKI
Description: as §1

Sequence of ALK6 (O00238 14-502): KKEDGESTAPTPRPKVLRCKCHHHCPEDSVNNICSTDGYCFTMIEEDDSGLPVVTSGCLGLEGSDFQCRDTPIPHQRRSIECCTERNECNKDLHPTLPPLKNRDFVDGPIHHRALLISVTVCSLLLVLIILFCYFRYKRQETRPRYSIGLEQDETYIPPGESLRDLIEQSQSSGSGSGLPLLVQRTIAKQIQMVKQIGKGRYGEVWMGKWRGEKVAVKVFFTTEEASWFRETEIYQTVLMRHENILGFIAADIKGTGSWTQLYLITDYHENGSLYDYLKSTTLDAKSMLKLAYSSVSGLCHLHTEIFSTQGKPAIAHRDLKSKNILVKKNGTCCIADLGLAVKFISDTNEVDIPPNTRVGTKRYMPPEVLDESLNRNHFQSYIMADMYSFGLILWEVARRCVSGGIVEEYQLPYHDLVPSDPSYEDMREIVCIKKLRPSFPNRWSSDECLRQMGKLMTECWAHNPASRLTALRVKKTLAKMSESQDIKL

| SMILES | IC50 [1] | IC50 [2] | IC50 [3] | IC50 [4] | IC50 [5] | IC50 [6] | activity in the higher ATP concentrations (concentration-response curves) ([3]; ALK1, in the presence of 10, 100, or 1,000 µM ATP, FIG. 3) | activity in the higher ATP concentrations (concentration-response curves) ([5]; ALK2, in the presence of 10, 100, or 1,000 µM ATP, FIG. 3) |
| --- | --- | --- | --- | --- | --- | --- | --- | --- |
| CC(=O)c1ccc(-c2cnn3cc(-c4ccc(N5[C@H](C)CNC[C@@H]5C)cc4)cnc23)c2ccccc12 [Compound 27, 1-(4-(6-(4-((2R,6S)-2,6-dimethylpiperazin-1-yl)phenyl)pyrazolo[1,5-a]pyrimidin-3-yl)naphthalen-1-yl)ethanone] | 0.622 µM | 4.03 µM | 0.109 µM | 13.5 µM | 0.019 µM | 0.224 µM | – | – |
| C[C@@H]1CNC[C@H](C)N1c1ccc(-c2cnc3c(-c4cccc5c(-c6nn[nH]n6)cccc45)cnn3c2)cc1 [Compound 28, 3-(5-(1H-tetrazol-5-yl)naphthalen-1-yl)-6-(4-((2R,6S)-2,6-dimethylpiperazin-1-yl)phenyl)pyrazolo[1,5-a]pyrimidine] | 0.113 µM | – | 0.133 µM | – | 0.023 µM | 0.168 µM | – | – |
| CC(O)c1ccc(-c2cnn3cc(-c4ccc(N5[C@H](C)CNC[C@@H]5C)cc4)cnc23)c2ccccc12 (stereo partly drawn) [Compound 29, 1-(4-(6-(4-((2R,6S)-2,6-dimethylpiperazin-1-yl)phenyl)pyrazolo[1,5-a]pyrimidin-3-yl)naphthalen-1-yl)ethanol] | 0.294 µM | 3.54 µM | 0.02 µM | 5.37 µM | 0.014 µM | 0.084 µM | – | – |
| C[C@@H]1CNC[C@H](C)N1c1ccc(-c2cnc3c(-c4ccc(C(=O)C(F)(F)F)c5ccccc45)cnn3c2)cc1 [Compound 30, 1-(4-(6-(4-((2R,6S)-2,6-dimethylpiperazin-1-yl)phenyl)pyrazolo[1,5-a]pyrimidin-3-yl)naphthalen-1-yl)-2,2,2-trifluoroethanone] | 2.38 µM | 7.99 µM | 0.305 µM | 22.9 µM | 0.206 µM | 1.61 µM | – | – |
| C[C@@H]1CNC[C@H](C)N1c1ccc(-c2cnc3c(-c4cccc5ccccc45)cnn3c2)cc1 [Compound 31, 6-(4-((2R,6S)-2,6-dimethylpiperazin-1-yl)phenyl)-3-(naphthalen-1-yl)pyrazolo[1,5-a]pyrimidine] | 1.08 µM | 6.6 µM | 0.051 µM | 59.6 µM | 0.017 µM | 0.271 µM | – | – |
| CC(O)c1cccc2c(-c3cnn4cc(-c5ccc(N6[C@H](C)CNC[C@@H]6C)cc5)cnc34)cccc12 (stereo partly drawn) [Compound 33, 1-(5-(6-(4-((2R,6S)-2,6-dimethylpiperazin-1-yl)phenyl)pyrazolo[1,5-a]pyrimidin-3-yl)naphthalen-1-yl)ethanol] | 16.2 µM | 16.3 µM | 1.53 µM | 40.4 µM | 0.367 µM | 7.83 µM | – | – |
| COc1ccc2ccccc2c1-c1cnn2cc(-c3ccc(N4[C@H](C)CNC[C@@H]4C)cc3)cnc12 [Compound 34, 6-(4-((2R,6S)-2,6-dimethylpiperazin-1-yl)phenyl)-3-(2-methoxynaphthalen-1-yl)pyrazolo[1,5-a]pyrimidine] | 17.4 µM | 12.7 µM | 1.31 µM | 18.5 µM | 0.249 µM | 4.86 µM | – | – |
| Cc1cc(S(N)(=O)=O)ccc1-c1cnn2cc(-c3ccc(N4[C@H](C)CNC[C@@H]4C)cc3)cnc12 [Compound 36, 4-(6-(4-((2R,6S)-2,6-dimethylpiperazin-1-yl)phenyl)pyrazolo[1,5-a]pyrimidin-3-yl)-3-methylbenzenesulfonamide] | – | – | 9.48 µM | – | 3.04 µM | – | – | – |
| Cc1cc(-c2cnn3cc(-c4ccc(N5[C@H](C)CNC[C@@H]5C)cc4)cnc23)ccc1S(N)(=O)=O [Compound 37, 4-(6-(4-((2R,6S)-2,6-dimethylpiperazin-1-yl)phenyl)pyrazolo[1,5-a]pyrimidin-3-yl)-2-methylbenzenesulfonamide] | – | – | 0.811 µM | – | – | – | – | – |
| C[C@@H]1CNC[C@H](C)N1c1ccc(-c2cnc3c(-c4ccc(S(N)(=O)=O)cc4)cnn3c2)cc1 [Compound 38, 4-(6-(4-((2R,6S)-2,6-dimethylpiperazin-1-yl)phenyl)pyrazolo[1,5-a]pyrimidin-3-yl)benzenesulfonamide] | – | – | 1.79 µM | – | – | – | – | – |
| C[C@@H]1CNC[C@H](C)N1c1ccc(-c2cnc3c(-c4cccc5c(S(=O)(=O)N(C)C)cccc45)cnn3c2)cc1 [Compound 40, 5-(6-(4-((2R,6S)-2,6-dimethylpiperazin-1-yl)phenyl)pyrazolo[1,5-a]pyrimidin-3-yl)-N,N-dimethylnaphthalene-1-sulfonamide] | > 10 µM | > 10 µM | > 10 µM | > 10 µM | 3.2 µM | > 10 µM | – | – |
| CC1CCN(c2ccc(-c3cnc4c(-c5ccc(S(N)(=O)=O)c6ccccc56)cnn4c3)cn2)CC1 [Compound 47, 4-(6-(6-(4-methylpiperidin-1-yl)pyridin-3-yl)pyrazolo[1,5-a]pyrimidin-3-yl)naphthalene-1-sulfonamide] | > 10 µM | > 10 µM | 5.7 µM | > 10 µM | 2.9 µM | > 10 µM | – | – |
| C[C@@H]1CNC[C@H](C)N1c1ccc(-c2cnc3c(-c4ccc(F)c(-c5nnn[nH]5)c4)cnn3c2)cc1 [Compound 72, 6-(4-((2R,6S)-2,6-dimethylpiperazin-1-yl)phenyl)-3-(4-fluoro-3-(1H-tetrazol-5-yl)phenyl)pyrazolo[1,5-a]pyrimidine] | 0.33 µM | > 10 µM | 0.12 µM | > 10 µM | 0.016 µM | 0.22 µM | – | – |
| CS(=O)(=O)c1cccc(-c2cnn3cc(-c4ccc(CC5CCNCC5)cc4)cnc23)c1 [Compound 126, 3-(3-(methylsulfonyl)phenyl)-6-(4-(piperidin-4-ylmethyl)phenyl)pyrazolo[1,5-a]pyrimidine. TFA] | > 10 µM | > 10 µM | 0.9 µM | > 10 µM | 0.28 µM | > 10 µM | – | – |
| CC(O)c1cccc(-c2cnn3cc(-c4ccc(C(F)(F)CN5CCCCC5)cc4)cnc23)c1 (centres unmarked) [Compound 127, 1-(3-(6-(4-(1,1-difluoro-2-(piperidin-1-yl)ethyl)phenyl)pyrazolo[1,5-a]pyrimidin-3-yl)phenyl)ethanol] | > 10 µM | > 10 µM | 4.8 µM | > 10 µM | 1.7 µM | > 10 µM | – | – |
| CS(=O)(=O)c1cccc(-c2cnn3cc(-c4ccc(CCN5CCCC5)cc4)cnc23)c1 [Compound 128, 3-(3-(methylsulfonyl)phenyl)-6-(4-(2-(pyrrolidin-1-yl)ethyl)phenyl)pyrazolo[1,5-a]pyrimidine] | > 10 µM | > 10 µM | 0.39 µM | > 10 µM | 0.08 µM | 6.3 µM | – | – |
| CC(N)c1ccc(-c2cnc3c(-c4ccc(S(N)(=O)=O)c5ccccc45)cnn3c2)cc1 (centres unmarked) [Compound 189, 4-(6-(4-(1-aminoethyl)phenyl)pyrazolo[1,5-a]pyrimidin-3-yl)naphthalene-1-sulfonamide] | > 10 µM | > 10 µM | 0.35 µM | > 10 µM | – | – | – | – |
| c1ccc2c(-c3cnn4cc(-c5ccc(N6CCNCC6)cc5)cnc34)ccnc2c1 [Compound A, reference compound] | – | – | – | – | – | – | reduced | reduced |
